Source: patent US20250152570A1 (AIR FORCE MEDICAL UNIVERSITY, priority 2022, published 2025)

Tests used:
ECA109 cells [1] = assay: Transwell migration assay, ECA109; type: cell-based; conditions: compared with the blank control
Description: (§1) At the same time, BI-D1870 was used as a positive control, and no drug was used as a blank control (Black).
(§2) • (1) Digest cells. Wash once with PBS, resuspend in serum-free medium, and adjust the cell density to 5×10^5/ml. • (2) Add 500 μl of culture medium containing 10% fetal bovine serum to the lower chamber of the 24-well plate. Take 200 μl of cell suspension and add it to the chamber. Note that there are no bubbles between the chamber and the lower culture medium. • (3) Culture routinely for 16-24 h. • (4) Aspirate the culture medium in the chamber, fix the cells in the chamber with anhydrous methanol for 15 min, and rinse with PBS. • (5) Color: Add Gumsa staining solution to the 24-well plate, immerse the membrane in the staining solution for 20 min, and wash with PBS. • (6) Carefully wipe off the cells on the inner layer of the membrane with a cotton swab and air-dry the membrane. • (7) Take pictures under a microscope, count 5 high-power fields, and take the average value.

TE10 cells [2] = assay: CCK8 cell proliferation, TE10; type: cell-based; conditions: compared with the blank control
Source text: as §1
(§3) The growth curve was drawn based on time and absorbance value.

ECA109 cells [3] = assay: CCK8 cell proliferation, ECA109; type: cell-based; conditions: compared with the blank control
Source text: as §1, §3

TE10 cells [4] = assay: Transwell migration assay, TE10; type: cell-based; conditions: compared with the blank control
Description: as §1, §2

[5] = tested on: RSK4 downstream substrates (P-RPS6, P-GSK3β); assay: Western blot of phosphorylation level of RSK4 downstream substrates; type: cell-based; conditions: TE10, ECA109 cells
Description: Western blot was used to detect the effect of phosphorylation level of RSK4 downstream substrates.
(1) Protein extraction, using Kangwei Century RIPA lysis buffer. Place the cell culture flask on ice for 20 minutes, shake it back and forth, and blow it with a pipette. Scrape the cells with a cell scraper, transfer them to an EP tube, and centrifuge them at 4° C. 10-20 μl can be aspirated for protein quantification. Add loading buffer, boil for 5 min, centrifuge at 12000 rpm for 5 min, and store in an ultra-low temperature refrigerator. Tissue protein extraction: Grind in liquid nitrogen, transfer to EP tube after melting, lyse on ice for 20 min, and centrifuge at 4° C.
(2) Protein quantification, use the Kangwei Century BCA quantification kit. Make two replicate wells for each sample, take the average value to make a standard curve and calculate the sample concentration.
(3) Protein electrophoresis, use the Kangwei Century SDS-PAGE gel preparation kit. The separation gel concentration is 8%, and the concentration gel concentration is 5%. The separation gel is 1.5 cm away from the upper edge of the front glass plate and filled with water to seal the gel. Use filter paper to absorb the water sealing liquid, fill the concentrated gel, and insert the comb. The voltage is 100V constant for 1 h30 min until the bromophenol blue runs out and stops electrophoresis.
(4) Transfer to membrane, soak the gel, filter paper, and sponge pad in 4° C. pre-cooled transfer buffer for 10 min, soak the PVDF membrane with methanol for 5 min, and transfer it to the transfer buffer for 10 min after it is fully wetted. Installation The order of transfer clips: black plate, sponge, 3 layers of filter paper, gel, membrane, 3 layers of filter paper, sponge, white plate. Expel bubbles at each step and place the membrane in one go. […]
(8) Luminescence: Use the Kangwei Century Chemiluminescence Detection Kit and scan the detection results with a chemiluminescence imager.
(9) Use Photoshop software to perform semi-quantitative grayscale analysis of the image and calculate the relative expression of the protein.

B16F10 (melanoma) = B16F10 (melanoma) transplant tumor model; type: in vivo, C57BL/6 mice; conditions: Selonsertib 15 mg/kg per day i.p.; Anti-PD1 50 μg/kg once every two days; 10 days
Description: (§4) • (1) B16F10 (melanoma) and LLC (Lewis lung cancer) transplant tumor models were constructed in 6-8 week old C57BL/6 mice, with 6 mice in each group. Each mouse was subcutaneously injected with about 1×10^6 B16F10 cells and 5×10^6 LLC cells dissolved in 200 μl sterile PBS. • (2) When the tumor volume reached 150 mm^3, the mice were divided into groups and treated differently. […] The Anti-PD1 used in this experiment was specifically In VivoPlus anti-mouse PD-1 (CD279). • (3) The experimental observation time lasted for 10 days (melanoma) or 20 days (Lewis lung cancer). If the mice were infected or in poor condition, they were treated in time. During the period, the tumor volume was measured every 2 days, and the volume calculation formula was length×width 2×0.5. • (4) At the end of the experiment, the mice were killed, the subcutaneous tumors were removed, photographed, weighed, and counted.

LLC (Lewis lung cancer) = LLC (Lewis lung cancer) transplant tumor model; type: in vivo, C57BL/6 mice; conditions: Selonsertib 15 mg/kg per day i.p.; Anti-PD1 50 μg/kg once every two days; 20 days
Description: as §4

ESCC cells = assay: Nude mouse tumor formation experiment, esophageal squamous cell carcinoma; type: in vivo, BALB/c nude mice; conditions: intraperitoneally 15 mg/kg or 30 mg/kg per day; 20 days
Description: • (1) Nude mouse tumor formation experiment was performed on 4-6 week old female BALB/c nude mice, with 5 nude mice in each group. Each mouse was subcutaneously injected with about 1×10^6 ESCC cells dissolved in 200 μl sterile PBS. • (2) When the tumor volume reached 150 mm^3, the mice were divided into groups and treated differently. […] If the mice were infected or in poor condition, they were treated in time. During this period, the tumor volume was measured every 3-5 days, and the volume calculation formula was length×width 2×0.5. • (4) At the end of the experiment, the mice were killed, the subcutaneous tumors were removed, photographed, weighed, and counted.

KYSE450/AR = assay: CCK8 proliferation of afatinib-resistant strain KYSE450/AR; type: cell-based; conditions: FIG. 10
Description: (§5) The CCK-8 cell proliferation kit of Shanghai Taoshu Biotechnology Co., Ltd. was used. • (1) Cell suspension was inoculated in a 96-well plate, 100 μL per well, 2,000 cells per well. • (2) Culture or give drugs according to experimental needs, and treat for an appropriate time. • (3) Add 10 μL of CCK-8 solution to each well and incubate at 37° C. • (4) The absorbance value was determined by selecting a wavelength of 450 nm on the microplate reader. The growth curve was drawn based on time and absorbance value.
The expression level of EGFR and the sensitivity to icotinib and afatinib in various ESCC cell lines (T1, T10, T11, KYSE150, KYSE450, ECA109, EC9706) were detected. The cell line KYSE450 with high EGFR expression and sensitivity to afatinib (low IC50) was selected. The icotinib and afatinib drug concentration increasing mode of action was used to induce KYSE450 cells to produce drug resistance, and a stable cell line resistant to icotinib and afatinib was obtained. The optimal drug concentration gradient for inducing afatinib obtained from the literature reports and the preliminary experiments before formal induction culture was: 100 nM, 300 nM, 500 nM, 800 nM, 1 μM and 5 μM. The initial induction dose of this experiment was 100 nM, and the highest induction dose was 5 μM. During the induction period, the culture medium containing icotinib and afatinib was replaced every 2 days. […]

KYSE450-IR = assay: CCK8 proliferation of icotinib-resistant strain KYSE450-IR; type: cell-based; conditions: for proliferation of KYSE450-IR: 2 μm, CCK8, DMSO blank control
Description: as §5
The expression level of EGFR and the sensitivity to icotinib and afatinib in various ESCC cell lines (T1, T10, T11, KYSE150, KYSE450, ECA109, EC9706) were detected. The cell line KYSE450 with high EGFR expression and sensitivity to afatinib (low IC50) was selected. The icotinib and afatinib drug concentration increasing mode of action was used to induce KYSE450 cells to produce drug resistance, and a stable cell line resistant to icotinib and afatinib was obtained. The optimal drug concentration gradient for inducing afatinib obtained from the literature reports and the preliminary experiments before formal induction culture was: 100 nM, 300 nM, 500 nM, 800 nM, 1 μM and 5 μM. The initial induction dose of this experiment was 100 nM, and the highest induction dose was 5 μM. During the induction period, the culture medium containing icotinib and afatinib was replaced every 2 days. When the initial induction dose was induced for two weeks and the cell growth was stable, the drug induction dose began to be doubled, and each dose was maintained for 14 days before reaching the highest induction dose. The drug-resistant cells obtained after 10 months of induction culture were named KYSE450/IR KYSE450/AR cell lines.

Compound	migration of ECA109 (ECA109 cells [1])	proliferation of TE10 (TE10 cells [2])	proliferation of ECA109 (ECA109 cells [3])	migration of TE10 (TE10 cells [4])	expression of P-GSK3β (ser9) [5]	expression of P-RPS6 (S235/S236) [5]	phosphorylation of RSK4 downstream substrates ([5]; different concentrations)	proliferation of melanoma (tumor growth) (B16F10 (melanoma))	proliferation of Lewis lung cancer (tumor growth) (LLC (Lewis lung cancer))	inhibitory effect on tumor growth compared with the positive control (BI-D1870) (ESCC cells)	KYSE450/AR proliferation (KYSE450/AR; 2 μm, CCK8)	resistance of esophageal squamous cell carcinoma to afatinib (KYSE450/AR)	proliferation of KYSE450-IR (KYSE450-IR)	resistance of esophageal squamous cell carcinoma to icotinib (KYSE450-IR; FIG. 9)
CC(C)CCN1c2nc(Nc3cc(F)c(O)c(F)c3)ncc2N(C)C(=O)C1C (stereo not shown) [BI-D1870]	can inhibit	can inhibit	can inhibit	can inhibit	–	–	–	–	–	–	–	–	–	–
Cc1cc(F)c(C(=O)Nc2cccc(-c3nncn3C(C)C)n2)cc1-n1cnc(C2CC2)c1 [Selonsertib, 5-(4-cyclopropyl-1H-imidazol-1-yl)-2-fluoro-N-(6-(4-isopropyl-4H-1,2,4-triazol-3-yl)pyridine-2-yl)-4-methylbenzamide]	can inhibit	can inhibit	can inhibit	can inhibit	downregulate	downregulate	could inhibit	can inhibit	can inhibit	stronger inhibitory effect on tumor growth at a lower dose	basically consistent with those of KYSE450-IR	reverses the resistance	can inhibit	reverses the resistance
C#Cc1cccc(Nc2ncnc3cc4c(cc23)OCCOCCOCCO4)c1 [icotinib]	–	–	–	–	–	–	–	–	–	–	–	–	extremely low	–
